Assay results published in US12466834B2, “Imidazodiazepinediones and methods of use thereof” (GFB (ABC), LLC, priority 2018, dated 2025).
pEC50, pIC50: −log10 of the molar value.

Assays:
Format in all cases: cell-based
human TRPC5 [1] = target: T1, human TRPC5 (Homo sapiens, UniProt Q9UL62); assay: FLIPR calcium assay, inhibition of riluzole-activated TRPC5 calcium response; settings: ICLN-1633 cells; riluzole 30 μM stimulation; Fluo-4 calcium response; read-out: Inhibitor Potency Range (FLIPR)
T1 construct: expressed in transfected cells
T1 sequence (Q9UL62 1-973): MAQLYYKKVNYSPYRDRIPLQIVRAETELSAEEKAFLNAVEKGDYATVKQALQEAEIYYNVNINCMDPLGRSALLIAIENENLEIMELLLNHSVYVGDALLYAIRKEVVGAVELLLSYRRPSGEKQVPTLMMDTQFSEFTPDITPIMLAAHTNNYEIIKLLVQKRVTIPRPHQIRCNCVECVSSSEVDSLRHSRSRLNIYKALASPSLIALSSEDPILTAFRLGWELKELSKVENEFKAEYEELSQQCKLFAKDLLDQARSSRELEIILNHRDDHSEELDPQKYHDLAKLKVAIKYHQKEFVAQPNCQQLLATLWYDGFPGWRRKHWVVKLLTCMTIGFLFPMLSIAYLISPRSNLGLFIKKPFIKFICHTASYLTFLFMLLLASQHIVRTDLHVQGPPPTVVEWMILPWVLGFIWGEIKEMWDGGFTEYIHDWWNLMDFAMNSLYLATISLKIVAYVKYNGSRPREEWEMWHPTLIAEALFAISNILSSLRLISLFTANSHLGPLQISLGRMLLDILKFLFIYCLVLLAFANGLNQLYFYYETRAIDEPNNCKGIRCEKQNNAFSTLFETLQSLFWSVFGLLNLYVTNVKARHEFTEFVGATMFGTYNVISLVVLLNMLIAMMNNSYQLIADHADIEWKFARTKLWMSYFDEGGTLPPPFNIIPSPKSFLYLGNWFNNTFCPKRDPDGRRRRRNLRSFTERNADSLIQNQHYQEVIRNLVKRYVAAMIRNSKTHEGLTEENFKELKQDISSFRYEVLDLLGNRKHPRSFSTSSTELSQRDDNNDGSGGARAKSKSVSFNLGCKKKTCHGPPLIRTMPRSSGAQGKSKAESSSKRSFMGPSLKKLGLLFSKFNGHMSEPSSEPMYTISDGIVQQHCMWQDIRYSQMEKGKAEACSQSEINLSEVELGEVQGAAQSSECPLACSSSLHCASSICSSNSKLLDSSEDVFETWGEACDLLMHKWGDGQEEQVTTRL
Experimental: (§1) ICLN-1633 cells (HEK-TREx hTRPC5) expressing TRPC5 were generated as follows. Commercially available HekTrex-293 cells were seeded at 0.7×10^6 cells/well in a 1×6-well plate 24 hrs prior to transfection using 2 mL cell growth media containing no antibiotics (1× DMEM/high glucose (Hyclone #SH30022.02); 10% fetal bovine serum (Sigma) 2 mM sodium pyruvate, 10 mM HEPES). The human TRPC5 coding sequence (NM_012471 with a silent T478C mutation) was cloned into pcDNA5/TO (Invitrogen; Cat No. V103320) using hygromycin as the resistance gene and the plasmid (SEQ ID NO:1) propagated using T-Rex-293 cells (Invitrogen; Cat No. R71007) following manufacturer's directions. On day 2, 2 μg of plasmid DNA plus 6 μl of Xtreme-GENE HP reagent in Optimem (200 μl total volume) was prepared and incubated for 15 min at room temperature. This plasmid solution was then gently overlayed dropwise onto each well and the plate was gently swirled to mix complex with the media for approximately 30 seconds. Transfected cells were incubated at 37° C. in a 10% CO2 incubator for 24 hrs. The transfected cells were harvested and transferred into 2×150 mm dishes containing cell growth media with no antibiotics at 37° C.
(§2) Compounds were made up to, or supplied as a 10 mM stock solution generally using DMSO as the vehicle. 10-point dose response curves were generated using the Echo-550 acoustic dispenser. Compound source plates were made by serially diluting compound stocks to create 10 mM, 1 mM, and 0.1 mM solutions in DMSO into Echo certified LDV plates. The Echo then serially spotted 100% DMSO stock solutions into source dose response plates to generate a 4-fold dilution scheme. 100% DMSO was added to the spotted dose response plates to bring the final volume to 5 μl. 300 nl of the dose response stock plate was then spotted into pre-incubation and stimulation assay plates. 50 μl of pre-incubation buffer and 100 μl of stimulation buffer was then added to the plates resulting in a final assay test concentration range of 30 μM to 0.0001 μM with a final DMSO concentration of 0.3%.
(§3) Human ICLN-1633 cells expressing were plated onto 384 well, black poly-D-lysine-coated microplates and maintained in TRPC5 growth media the day prior to use for experiments. TRPC5 expression was induced by the application of 1 μg/mL tetracycline at the time of plating. Media was removed from the plates and 10 μl of 4 μM of Fluo-4 AM (mixed with equal volume of Pluronic F-127) in Earls's Balanced Salt Solution (EBSS) was added to the cells. Cells were incubated at room temperature, protected from light, for 60-90 minutes. After the incubation period, the dye was removed and replaced with 10 μl of EBSS. Cell, pre-incubation and stimulation plates were loaded onto the FLIPR-II and the assay was initiated. The FLIPR measured a 10 second baseline and then added 10 μl of 2× compounds (or controls). Changes in fluorescence were monitored for an additional 5 minutes. After the 5 minute pre-incubation, 20 μl of 2× riluzole (with 1× compound or controls) was added to the cell plate. The final riluzole stimulation concentration in the assay was 30 μM. After the riluzole addition, changes in fluorescence were monitored for an additional 5 minutes. Reduction in the riluzole-activated calcium response relative to control wells was reported as inhibition. A compound-mediated increase in the riluzole response relative to control riluzole response (no test agent present) with no enhancement of calcium entry during preincubation phase was reported as an agonist response.
Compound inhibition of TRPC5 calcium response was determined as follows. After the riluzole addition, fluorescence was monitored for a 5-minute period. For inhibition, the maximum relative fluorescence response (minus the control response of 1 μM of an internal control compound known to maximally block TRPC5 calcium response, the “REF INHIB” in the formula below) was captured and exported from the FLIPR. […]

human TRPC5 [2] = target: T1, human TRPC5; assay: FLIPR calcium assay, compound activation (agonism) of TRPC5 calcium response; set-up: key to Agonist Potency Range (FLIPR): A=0.001-1 μM; B=1-10 μM; C=>1 μM; D=tested with a positive result for agonism, but EC50 not calculated; settings: ICLN-1633 cells, Fluo-4 calcium response; for pEC50: read-out: Agonist Potency Range (FLIPR)
Experimental: as §1, §2, §3
Compound activation (agonism) of TRPC5 calcium response was determined as follows. After the initial compound addition, fluorescence was monitored for 5 minutes. The maximum relative fluorescence response (minus the control response of EBSS buffer alone) is captured and exported from the FLIPR. Compound activation is calculated using the following formula: […]

human TRPC5 [3] = target: T1, human TRPC5; assay: Automated patch clamp assay (QPatch), antagonist mode; settings: HEK-TREx hTRPC5 cells; channel activated with Rosiglitazone 30 μM; normalised to ML-204 block; read-out: Qpatch Potency Range
Experimental: as §1
The next day selection was initiated to generate a stable pool by adding cell growth media containing 150 μg/mL Hygromycin and 5 μg/mL Blasticidin and cells were allowed to grow. Media with the selection agent was changed every 1-2 days as needed to remove dead cells. After 7 days, the hygromycin concentration was reduced to 75 μg/mL and cells growth was allowed to continue.
Single clones were selected as follows. The stable pool was diluted to 10 cells/mL and seeded (100 μl/well) into 24×96 well plates (˜1 cell/well) and allowed to grow for 7 days in cell growth media. Fresh media (100 μl) was added and the cells allowed to grow for another 1-2 weeks and then stored frozen or used immediately.
The automated electrophysiological assay was carried out at room temperature. On the day of the experiment, TRPC5 cells were cultured according to our Standard Operating Procedure. Briefly, cells were harvested using TrypLE™ Express, re-suspended in serum free medium, added to the automated platform and used within 0.5-3 hours. Internal and external physiological solutions were freshly prepared prior to the assay. The external solution contained: 145 mM NaCl, 4 mM KCl, 2 mM CaCl2, 1 mM MgCl2, 10 mM HEPES, 10 mM glucose, pH 7.4 with NaOH and 310 mOsm/L. The internal solution contained 120 mM L-aspartic acid, 120 mM CsOH·H2O, 20 mM CsCl, 2 mM MgCl2, 8.8 mM CaCl2, 10 mM EGTA, 10 mM HEPES and 2 mM Na2ATP; pH 7.2 with CsOH and 330 mOsm/L. The free internal Ca^2+ concentration was buffered to 1 μM, according to the WCabuf software. The automated electrophysiological platform QPatch 16 from Sophion (Denmark) was used to carry out the compounds profiling. The series resistance and quality of seals were continuously monitored during the experiments. Data were analyzed using Sophion QPatch assay software 5.6 (Odense). Data were normalized using the maximum activation obtained during the pre-compound agonist application as the top value (1.0) and maximum inhibition induced by ML-204 as the bottom value (0.0). IC50 values were calculated using a least squares regression algorithm (Hill equation).
To monitor the ion currents, a voltage ramp from −100 mV to +100 mV, over 300 ms, was applied every 10 seconds, from a holding potential of −60 mV. Antagonist-mode: After recording for a minimum of 60 seconds control period, the EC60 concentration of the TRPC5 agonist, Rosiglitazone (30 μM), was applied to activate the channel. After reaching steady-state, co-application of increasing concentrations of test compound were applied followed by two applications of Rosiglitazone EC60 and a saturating concentration of the specific blocker ML-204 (100 μM).

| SMILES | pIC50 (human TRPC5 [1]) | pEC50 (human TRPC5 [2]) | Agonist Potency Range (FLIPR) (human TRPC5 [2]) | pIC50 (human TRPC5 [3]) |
| --- | --- | --- | --- | --- |
| O=C1c2c(nc(Oc3cccc(F)c3)n2Cc2ccc(Cl)cc2)N2CCC[C@@H]2C(=O)N1CCCO [Compound 27] | < 5.00 | 6.00 to 9.00 | – | – |
| CCCOc1nc2c(n1Cc1ccc(Cl)cc1)C(=O)N(CCCO)C(=O)[C@@H]1CCCN21 [Compound 31] | < 5.00 | 6.00 to 9.00 | – | – |
| CC(C)Oc1nc2c(n1Cc1ccc(Cl)cc1)C(=O)N(CCCO)C(=O)[C@H]1CCCN21 [Compound 29] | < 5.00 | 5.00 to 6.00 | – | – |
| CCCCn1c(Oc2cccc(F)c2)nc2c1C(=O)N(CCCO)C(=O)[C@H]1CCCN21 (single isomer, unassigned) [Compound 25] | < 5.00 | – | D | – |
| CC(C)Oc1nc2c(n1Cc1ccc(Cl)cc1)C(=O)N(CCCO)C(=O)[C@@H]1CCCN21 [Compound 28] | < 5.00 | 6.00 to 9.00 | – | – |
| C[C@@H](c1ccc(Cl)cc1)n1c(Oc2cccc(F)c2)nc2c1C(=O)N(CCCO)CC(=O)N2C (single isomer, unassigned) [Compound 7] | < 5.00 | – | – | 4.52 to 6.00 |
| CCCOc1nc2c(n1Cc1ccc(Cl)cc1)C(=O)N(CCCO)C(=O)[C@H]1CCCN21 [Compound 30] | < 5.00 | 5.00 to 6.00 | – | – |
| CN1C(=O)CN(CCCO)C(=O)c2c1nc(Oc1cccc(OC(F)(F)F)c1)n2Cc1ccc(Cl)cc1 [Compound 2, 1-[(4-chlorophenyl)methyl]-7-(3-hydroxypropyl)-4-methyl-2-[3-(trifluoromethoxy)phenoxy]-1H,4H,5H,6H,7H,8H-imidazo[4,5-e][1,4]diazepine-5,8-dione] | 5.00 to 6.00 | – | – | 4.52 to 6.00 |
